Measured values published in publication PMC11971462, “Generation and validation of a novel multitarget small molecule in glioblastoma” (Cell Death & Disease, 2025).

Test system: GNS166 cells
Assay: Label-free proteomics differential expression
Format: cell-based, human
Procedure: Proteomic studies were performed by the Proteomics Facility of the CIC bioGUNE by label-free relative quantification on nLC MS/MS. […] In both approaches, the top 20 enriched terms were plotted and the pathways were clustered using divisive hierarchical clustering based on pairwise Jaccard distances.

In the case of `C#CCN(Cc1cc2cc(OCCCN3CCCCC3)ccc2n1S(=O)(=O)c1ccccc1)C(=O)CCCCCCC(=O)NO` [DDI], the “Direction TENS3_HUMAN” value (protein Q68CZ2) is reported as “Down”, the “LogFC TENS3_HUMAN” value (protein Q68CZ2) is reported as -3.364 and the “LogFC LARP4_HUMAN” value (protein Q71RC2 GN=LARP4) is reported as 0.7689. The “LogFC PEG10_HUMAN” value (protein Q86TG7 GN=PEG10) was 3.16, the “LogFC SETD3_HUMAN” value (protein Q86TU7 GN=SETD3) was 0.5021 and the “Direction ACOT1_HUMAN” value (protein Q86TX2) was “Down”. For the same compound, the “LogFC ACOT1_HUMAN” value (protein Q86TX2) was -1.83, the “LogFC PABP2_HUMAN” value (protein Q86U42 GN=PABPN1) was -1.1218 and the “Direction PB1_HUMAN” value (protein Q86U86) was “Down”. The “LogFC PB1_HUMAN” value (protein Q86U86) was -2.078, the “Direction PHLB1_HUMAN” value (protein Q86UU1) was “Down” and the “LogFC PHLB1_HUMAN” value (protein Q86UU1) was -2.257. The “Direction DTX2_HUMAN” value (protein Q86UW9) was “Down”, the “LogFC DTX2_HUMAN” value (protein Q86UW9) was -1.305 and the “LogFC LUZP1_HUMAN” value (protein Q86V48 GN=LUZP1) was 0.5884. For the same compound, the “LogFC THOC4_HUMAN” value (protein Q86V81 GN=ALYREF) was -0.9542, the “Direction IQGA3_HUMAN” value (protein Q86VI3) was “Down” and the “LogFC IQGA3_HUMAN” value (protein Q86VI3) was -2.742. For the same compound, the “Direction MET16_HUMAN” value (protein Q86W50) was “Down”, the “LogFC MET16_HUMAN” value (protein Q86W50) was -1.7557 and the “LogFC CCD25_HUMAN” value (protein Q86WR0 GN=CCDC25) was 2.202. For the same compound, the “LogFC NIT1_HUMAN” value (protein Q86X76 GN=NIT1) was 0.9607, the “Direction CNDG2_HUMAN” value (protein Q86XI2) was “Down” and the “LogFC CNDG2_HUMAN” value (protein Q86XI2) was -2.11. The “Direction ANKL2_HUMAN” value (protein Q86XL3) was “Down”, the “LogFC ANKL2_HUMAN” value (protein Q86XL3) was -0.7885 and the “LogFC DDX42_HUMAN” value (protein Q86XP3 GN=DDX42) was -0.6019. For the same compound, the “Direction VRK2_HUMAN” value (protein Q86Y07) was “Down”, the “LogFC VRK2_HUMAN” value (protein Q86Y07) was -1.564 and the “LogFC RAB43_HUMAN” value (protein Q86YS6 GN=RAB43) was -1.528. For the same compound, the “Direction RFT1_HUMAN” value (protein Q96AA3) was “Down”, the “LogFC RFT1_HUMAN” value (protein Q96AA3) was -0.9928 and the “Direction TTC17_HUMAN” value (protein Q96AE7) was “Down”. For the same compound, the “LogFC TTC17_HUMAN” value (protein Q96AE7) was -1.296, the “LogFC PBIP1_HUMAN” value (protein Q96AQ6 GN=PBXIP1) was 1.536 and the “LogFC SARAF_HUMAN” value (protein Q96BY9 GN=SARAF) was 2.225. The “LogFC ACSF2_HUMAN” value (protein Q96CM8 GN=ACSF2) was 1.4396, the “LogFC GCP3_HUMAN” value (protein Q96CW5 GN=TUBGCP3) was -1.184 and the “LogFC RMXL1_HUMAN” value (protein Q96E39 GN=RBMXL1) was 1.251. The “LogFC SGTB_HUMAN” value (protein Q96EQ0 GN=SGTB) was 0.9619, the “Direction WDR34_HUMAN” value (protein Q96EX3) was “Down” and the “LogFC WDR34_HUMAN” value (protein Q96EX3) was -2.769. The “LogFC DYL2_HUMAN” value (protein Q96FJ2 GN=DYNLL2) was 1.408, the “Direction CERS2_HUMAN” value (protein Q96G23) was “Down” and the “LogFC CERS2_HUMAN” value (protein Q96G23) was -1.352. The “Direction AURKB_HUMAN” value (protein Q96GD4) was “Down”, the “LogFC AURKB_HUMAN” value (protein Q96GD4) was -0.8936 and the “Direction TOE1_HUMAN” value (protein Q96GM8) was “Down”. The “LogFC TOE1_HUMAN” value (protein Q96GM8) was -1.175, the “Direction ITCH_HUMAN” value (protein Q96J02) was “Down” and the “LogFC ITCH_HUMAN” value (protein Q96J02) was -0.7634. For the same compound, the “Direction TOPK_HUMAN” value (protein Q96KB5) was “Down”, the “LogFC TOPK_HUMAN” value (protein Q96KB5) was -2.0632 and the “Direction EHMT2_HUMAN” value (protein Q96KQ7) was “Down”. The “LogFC EHMT2_HUMAN” value (protein Q96KQ7) was -1.8, the “Direction EP400_HUMAN” value (protein Q96L91) was “Down” and the “LogFC EP400_HUMAN” value (protein Q96L91) was -2.0331. For the same compound, the “Direction TRI47_HUMAN” value (protein Q96LD4) was “Down”, the “LogFC TRI47_HUMAN” value (protein Q96LD4) was -1.137 and the “LogFC FXL18_HUMAN” value (protein Q96ME1 GN=FBXL18) was 0.7929. For the same compound, the “LogFC DCBD2_HUMAN” value (protein Q96PD2 GN=DCBLD2) was -0.7605, the “LogFC NED4L_HUMAN” value (protein Q96PU5 GN=NEDD4L) was 1.365 and the “LogFC S38A2_HUMAN” value (protein Q96QD8 GN=SLC38A2) was 0.9305. For the same compound, the “Direction MCCA_HUMAN” value (protein Q96RQ3) was “Down”, the “LogFC MCCA_HUMAN” value (protein Q96RQ3) was -0.7659 and the “Direction INT14_HUMAN” value (protein Q96SY0) was “Down”. For the same compound, the “LogFC INT14_HUMAN” value (protein Q96SY0) was -0.8896, the “Direction RSF1_HUMAN” value (protein Q96T23) was “Down” and the “LogFC RSF1_HUMAN” value (protein Q96T23) was -2.084. The “Direction UHRF1_HUMAN” value (protein Q96T88) was “Down”, the “LogFC UHRF1_HUMAN” value (protein Q96T88) was -2.206 and the “Direction VIGLN_HUMAN” value (protein Q00341) was “Down”. The “LogFC VIGLN_HUMAN” value (protein Q00341) was -1.004, the “Direction PAR14_HUMAN” value (protein Q460N5) was “Down” and the “LogFC PAR14_HUMAN” value (protein Q460N5) was -1.711. The “LogFC CDK5_HUMAN” value (protein Q00535 GN=CDK5) was 1.129, the “LogFC M17L2_HUMAN” value (protein Q567V2 GN=MPV17L2) was 1.68 and the “LogFC PURA_HUMAN” value (protein Q00577 GN=PURA) was 0.4477. For the same compound, the “LogFC SFT2C_HUMAN” value (protein Q587I9 GN=SFT2D3) was -1.885, the “LogFC ACD11_HUMAN” value (protein Q709F0 GN=ACAD11) was -0.7894 and the “LogFC CAP1_HUMAN” value (protein Q01518 GN=CAP1) was 0.6335. The “Direction OTUD4_HUMAN” value (protein Q01804) was “Down”, the “LogFC OTUD4_HUMAN” value (protein Q01804) was -1.044 and the “Direction BDH_HUMAN” value (protein Q02338) was “Down”. For the same compound, the “LogFC BDH_HUMAN” value (protein Q02338) was -0.9278, the “LogFC DSC2_HUMAN” value (protein Q02487 GN=DSC2) was 2.478 and the “LogFC AKA12_HUMAN” value (protein Q02952 GN=AKAP12) was 2.896. For the same compound, the “LogFC KIME_HUMAN” value (protein Q03426 GN=MVK) was -0.3731, the “Direction ERCC6_HUMAN” value (protein Q03468) was “Down” and the “LogFC ERCC6_HUMAN” value (protein Q03468) was -0.8508. For the same compound, the “Direction TAP1_HUMAN” value (protein Q03518) was “Down”, the “LogFC TAP1_HUMAN” value (protein Q03518) was -0.8528 and the “Direction TAP2_HUMAN” value (protein Q03519) was “Down”. The “LogFC TAP2_HUMAN” value (protein Q03519) was -0.8847, the “Direction GLGB_HUMAN” value (protein Q04446) was “Down” and the “LogFC GLGB_HUMAN” value (protein Q04446) was -0.6914. The “Direction SRS11_HUMAN” value (protein Q05519) was “Down”, the “LogFC SRS11_HUMAN” value (protein Q05519) was -0.4029 and the “Direction FOLC_HUMAN” value (protein Q05932) was “Down”. The “LogFC FOLC_HUMAN” value (protein Q05932) was -1.856, the “LogFC PUR1_HUMAN” value (protein Q06203 GN=PPAT) was 0.9093 and the “LogFC GFPT1_HUMAN” value (protein Q06210 GN=GFPT1) was -0.4508. The “LogFC PRDX1_HUMAN” value (protein Q06830 GN=PRDX1) was 1.081, the “Direction B2CL1_HUMAN” value (protein Q07817) was “Down” and the “LogFC B2CL1_HUMAN” value (protein Q07817) was -1.289. The “Direction RHG01_HUMAN” value (protein Q07960) was “Down”, the “LogFC RHG01_HUMAN” value (protein Q07960) was -0.6872 and the “Direction AHNK_HUMAN” value (protein Q09666) was “Down”. For the same compound, the “LogFC AHNK_HUMAN” value (protein Q09666) was -0.5648, the “Direction CPSF1_HUMAN” value (protein Q10570) was “Down” and the “LogFC CPSF1_HUMAN” value (protein Q10570) was -0.5217. For the same compound, the “LogFC SCRN1_HUMAN” value (protein Q12765 GN=SCRN1) was -0.7259, the “Direction CDC20_HUMAN” value (protein Q12834) was “Down” and the “LogFC CDC20_HUMAN” value (protein Q12834) was -2.397.
